Data from PMC7561186, “Rational design of balanced dual-targeting antibiotics with limited resistance” (PLoS Biology, 2020).
Values joined by “and” are separate entries in the source; they are usually repeats but may differ in a detail not shown here. Equal entries are not always repeated.

Columns and labels:
[1] = target: T1, S. aureus topoisomerase IV (Staphylococcus aureus, UniProt P0C1S7); assay: S. aureus topoisomerase IV gel-based assay; type: biochemical; settings: quadruplicates
T1 construct: purchased Inspiralis Ltd., Norwich, UK

Acinetobacter baumannii = assay: MIC, broth microdilution (CLSI); type: cell-based
Protocol: (§1) MICs were determined using a standard serial broth microdilution technique according to the CLSI guidelines. Briefly, bacterial strains were inoculated onto MHBII agar plates and were grown overnight at 37 °C. Next, 3 individual colonies from each strain were inoculated into 1 mL MHBII medium and propagated at 37 °C, 250 rpm overnight. In the cases of Enterococcus and Streptococcus sp., cells were plated to BHI agar plates, and BHI broth was used to determine MICs. […] Following dilutions, each well was seeded with 5×10^4 bacterial cells. All measurements were performed in 3 parallel replicates and to avoid possible edge effects in microwell plates, side rows (A and H) were filled with sterile medium. Following inoculations, plates were covered with lids and wrapped in polyethylene plastic bags to minimize evaporation but allow for O2 transfer. Plates were incubated at 37 °C under continuous shaking at 150 rpm for 18 hours. After incubation, OD600 of each well was measured using a BioTek Synergy 2 microplate reader.

Clostridium difficile = assay: MIC, broth microdilution (CLSI); type: cell-based
Protocol: as §1

Enterococcus faecalis = assay: MIC, broth microdilution (CLSI); type: cell-based; settings: Enterococcus faecalis ATCC 29212
Protocol: as §1

Enterococcus faecium = assay: MIC, broth microdilution (CLSI); type: cell-based
Protocol: as §1

Escherichia coli = assay: MIC, broth microdilution (CLSI); type: cell-based; settings: Escherichia coli ATCC 25922
Protocol: as §1

Haemophilus influenzae = assay: MIC, broth microdilution (CLSI); type: cell-based
Protocol: as §1

Helicobacter pylori = assay: MIC, broth microdilution (CLSI); type: cell-based; settings: Helicobacter pylori ATCC 43504
Protocol: as §1

Klebsiella pneumoniae = assay: MIC, broth microdilution (CLSI); type: cell-based; settings: Klebsiella pneumoniae ATCC 10031
Protocol: as §1

Listeria monocytogenes = assay: MIC, broth microdilution (CLSI); type: cell-based; settings: Listeria monocytogenes ATCC 19111
Protocol: as §1

Neisseria gonorrhoeae = assay: MIC, broth microdilution (CLSI); type: cell-based
Protocol: as §1

Pseudomonas aeruginosa = assay: MIC, broth microdilution (CLSI); type: cell-based
Protocol: as §1

Shigella flexneri = assay: MIC, broth microdilution (CLSI); type: cell-based
Protocol: as §1

Staphylococcus aureus = assay: MIC, broth microdilution (CLSI); type: cell-based
Protocol: as §1

Streptococcus pneumoniae = assay: MIC, broth microdilution (CLSI); type: cell-based
Protocol: as §1

Streptococcus pyogenes = assay: MIC, broth microdilution (CLSI); type: cell-based
Protocol: as §1

S. aureus = assay: pH-dependent MIC determination; type: cell-based; settings: Staphylococcus aureus
Protocol: as §1

[2] = tested on: S. aureus ATCC 700699 VISA; assay: Time-dependent killing; type: cell-based; settings: for Time-kill bacterial count: 10xMIC; for Colony numbers: time-kill raw counts, Samples 1-3
Protocol: Time-dependent killing experiments were performed as previously. S. aureus ATCC 700699 VISA cells were inoculated to MHBII agar plates and grown overnight at 37 °C. Next, 3 independent stationer-phase starter cultures were grown at 37 °C, 250 rpm overnight, in 3 × 1 mL MHBII broth. Next, 100-fold diluted cultures were prepared from each in 20 mL fresh MHBII medium and grown at 37 °C, 250 rpm until early exponential phase (OD600 = 0.3–0.4; i.e., 5 × 10^5 cells/mL). […] Cells were treated with antibiotics in Erlenmeyer flasks at 37 °C, 150 rpm for 48 hours. […] Next, 50 μL from each dilution were plated on MHBII agar plates, and plates were incubated overnight at 37 °C to calculate CFU per mL.

T1 sequence (P0C1S7 whole entry): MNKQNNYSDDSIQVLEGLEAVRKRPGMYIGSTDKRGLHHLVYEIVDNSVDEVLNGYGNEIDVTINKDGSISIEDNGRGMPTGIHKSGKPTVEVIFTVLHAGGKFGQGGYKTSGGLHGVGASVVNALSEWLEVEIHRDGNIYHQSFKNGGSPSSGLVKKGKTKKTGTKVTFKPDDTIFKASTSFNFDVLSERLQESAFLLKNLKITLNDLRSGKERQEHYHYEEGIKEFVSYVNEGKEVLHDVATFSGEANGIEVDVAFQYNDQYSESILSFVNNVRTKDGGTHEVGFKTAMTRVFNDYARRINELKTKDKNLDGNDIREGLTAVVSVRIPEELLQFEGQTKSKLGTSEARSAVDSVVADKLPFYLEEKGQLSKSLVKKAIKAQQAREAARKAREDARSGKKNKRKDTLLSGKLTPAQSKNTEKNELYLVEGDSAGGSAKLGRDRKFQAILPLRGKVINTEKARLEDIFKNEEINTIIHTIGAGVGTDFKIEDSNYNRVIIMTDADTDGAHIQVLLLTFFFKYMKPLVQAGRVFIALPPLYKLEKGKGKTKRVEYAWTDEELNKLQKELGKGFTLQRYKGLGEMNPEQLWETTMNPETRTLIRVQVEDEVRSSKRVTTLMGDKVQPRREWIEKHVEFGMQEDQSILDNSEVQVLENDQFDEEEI
T1 sequence (P0C1U9 whole entry, further chain): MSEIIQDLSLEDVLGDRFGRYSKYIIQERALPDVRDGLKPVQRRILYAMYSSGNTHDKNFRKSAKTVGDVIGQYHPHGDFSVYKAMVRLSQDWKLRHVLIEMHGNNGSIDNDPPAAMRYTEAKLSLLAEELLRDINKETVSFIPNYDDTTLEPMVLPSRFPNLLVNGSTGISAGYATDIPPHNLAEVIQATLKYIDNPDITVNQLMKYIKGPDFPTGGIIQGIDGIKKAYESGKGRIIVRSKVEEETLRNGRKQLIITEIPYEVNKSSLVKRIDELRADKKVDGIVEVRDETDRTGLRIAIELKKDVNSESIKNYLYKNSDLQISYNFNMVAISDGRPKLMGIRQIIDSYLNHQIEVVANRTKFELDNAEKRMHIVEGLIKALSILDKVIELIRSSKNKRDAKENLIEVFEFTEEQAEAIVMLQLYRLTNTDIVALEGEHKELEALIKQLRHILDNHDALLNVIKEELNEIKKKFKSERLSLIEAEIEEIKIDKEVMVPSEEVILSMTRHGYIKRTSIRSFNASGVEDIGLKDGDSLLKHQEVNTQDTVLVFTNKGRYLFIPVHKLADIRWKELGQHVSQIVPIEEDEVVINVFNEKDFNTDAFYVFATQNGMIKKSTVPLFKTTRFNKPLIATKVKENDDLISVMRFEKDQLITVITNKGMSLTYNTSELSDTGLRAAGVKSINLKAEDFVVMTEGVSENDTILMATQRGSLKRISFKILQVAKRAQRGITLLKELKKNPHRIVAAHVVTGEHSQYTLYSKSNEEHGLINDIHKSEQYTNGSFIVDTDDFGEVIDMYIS

Cc1[nH]c(C(=O)Nc2nc3c(OCc4ccccc4)cc(C(=O)O)cc3s2)c(Cl)c1Cl [ULD2]
IC50 [1]: 2 ± 0.3 nM | MIC (Acinetobacter baumannii; ATCC19606, Acinetobacter baumannii ATCC 19606): 0.5 µg/mL | MIC (Acinetobacter baumannii; Acinetobacter baumannii ATCC 17978): 2 µg/mL | MIC (Acinetobacter baumannii; Acinetobacter baumannii ATCC 19606): 0.5 µg/mL | MIC (Clostridium difficile; Clostridioides difficile, BAA1875): ≤ 0.0312 µg/mL | MIC (Clostridium difficile; Clostridium difficile BAA-1875): < 0.0312 µg/mL | MIC (Enterococcus faecalis): < 0.0312 µg/mL | MIC (Enterococcus faecium; Enterococcus faecium ATCC 19434): 0.5 µg/mL | MIC (Enterococcus faecium; Enterococcus faecium ATCC 700221, VRE (VanA+)): 0.0625 µg/mL | MIC (Enterococcus faecium; Enterococcus faecium CCUG 56858, VRE (VanB+)): 0.25 µg/mL | MIC (Escherichia coli): 16 µg/mL | MIC (Haemophilus influenzae; ATCC49247, Haemophilus influenzae ATCC 49247): 0.125 µg/mL | MIC (Haemophilus influenzae; Haemophilus influenzae ATCC 35056): 1 µg/mL | MIC (Haemophilus influenzae; Haemophilus influenzae ATCC 49247): 0.125 µg/mL | MIC (Helicobacter pylori): 4 µg/mL | MIC (Klebsiella pneumoniae; ATCC10031): 4 µg/mL | MIC (Klebsiella pneumoniae): 4 µg/mL | MIC (Listeria monocytogenes; ATCC19111): 0.125 µg/mL | MIC (Listeria monocytogenes): 0.125 µg/mL | MIC (Neisseria gonorrhoeae; CCUG57598, Neisseria gonorrhoeae CCUG 57598): ≤ 0.0312 µg/mL | MIC (Neisseria gonorrhoeae; Neisseria gonorrhoeae ATCC 700825): < 0.0312 µg/mL | MIC (Neisseria gonorrhoeae; Neisseria gonorrhoeae CCUG 57598): < 0.0312 µg/mL | MIC (Pseudomonas aeruginosa; ATCC27853, Pseudomonas aeruginosa ATCC 27853): 2 µg/mL | MIC (Pseudomonas aeruginosa; Pseudomonas aeruginosa ATCC 27853): 2 µg/mL | MIC (Pseudomonas aeruginosa; Pseudomonas aeruginosa B3-1811, Ciprofloxacin-R, Cephalosporin-R): 16 µg/mL | MIC (Shigella flexneri; Shigella flexneri 668): 16 µg/mL | MIC (Shigella flexneri; Shigella flexneri HNCMB 20018): 8 µg/mL | MIC (Staphylococcus aureus; Staphylococcus aureus (strain not given), MRSA (SCCmec type IV), Oxacillin-R, VSSA, Cephalosporin-R, Erythromycin-R): 0.063 µg/mL | MIC (Staphylococcus aureus; Staphylococcus aureus ATCC 29213): 0.5 µg/mL | MIC (Staphylococcus aureus; Staphylococcus aureus ATCC 33594, MSSA, VSSA): 0.125 µg/mL | MIC (Staphylococcus aureus; Staphylococcus aureus ATCC 43300, MRSA): 0.0625 µg/mL | MIC (Staphylococcus aureus; Staphylococcus aureus ATCC 700699 (Mu50, NRS1), MRSA, VISA): < 0.0312 µg/mL | MIC (Staphylococcus aureus; Staphylococcus aureus CDC AR-BANK 0218, MRSA, VISA): 0.125 µg/mL | MIC (Staphylococcus aureus; Staphylococcus aureus ECL 2963646, MRSA, VRSA): < 0.0312 µg/mL | MIC (Staphylococcus aureus; Staphylococcus aureus NRS271, MRSA, Linezolid-R): 0.25 µg/mL | MIC (Staphylococcus aureus; Staphylococcus aureus USA300, ATCC BAA-1717, MRSA): 0.063 µg/mL | MIC (Staphylococcus aureus; Staphylococcus aureus USA400, BAA-1707, NRS123, MRSA): 0.125 µg/mL | MIC (Staphylococcus aureus; Staphylococcus aureus, ATCC 700699 / MRSA / NRS 1 / VISA, S. aureus ATCC 700699 (Mu50, NRS1), MRSA, VISA): ≤ 0.0312 µg/mL | MIC (Staphylococcus aureus; Staphylococcus aureus, S. aureus ECL 2963646, MRSA, VRSA): ≤ 0.0312 µg/mL | MIC (Streptococcus pneumoniae; Streptococcus pneumoniae ATCC 49619): 0.25 µg/mL | MIC (Streptococcus pneumoniae; Streptococcus pneumoniae ATCC 51916): 0.25 µg/mL | MIC (Streptococcus pneumoniae; Streptococcus pneumoniae ATCC 700673): 0.25 µg/mL | MIC (Streptococcus pyogenes; Streptococcus pyogenes ATCC 14289): 0.25 µg/mL | MIC (Streptococcus pyogenes; Streptococcus pyogenes ATCC 19615): 0.125 µg/mL | MIC (S. aureus; S. aureus ATCC 43300 (MRSA), pH 5.5): 0.008 µg/mL | MIC (S. aureus; S. aureus ATCC 43300 (MRSA), pH 7.3): 0.06 µg/mL | MIC (S. aureus; S. aureus ATCC 700699 (VISA), pH 5.5): 0.0005 µg/mL | MIC (S. aureus; S. aureus ATCC 700699 (VISA), pH 7.3): 0.02 µg/mL | Time-kill bacterial count ([2]; time 0 hour): 2.80E+05 | Time-kill bacterial count ([2]; time 3 hour): 9.90E+04 | Time-kill bacterial count ([2]; time 6 hour): 5.60E+04 | Time-kill bacterial count ([2]; time 12 hour): 7.00E+03 | Time-kill bacterial count ([2]; time 18 hour): 4.90E+02 | Time-kill bacterial count ([2]; time 24 hour): 1.90E+02 | Time-kill bacterial count ([2]; time 48 hour): 1.70E+01 | cell killing (bactericidal) activity ([2]; 10× MIC, S. aureus ATCC 700699 (VISA), in words): exceed that of fusidic acid | Colony numbers ([2]; time 0 h, Dilution 100): 145 and 132 and 137 | Colony numbers ([2]; time 3 h, Dilution 100): 56 and 39 and 53 | Colony numbers ([2]; time 6 h, Dilution 100): 28 and 24 and 32 | Colony numbers ([2]; time 18 h, Dilution 1): 31 and 22 and 20 | Colony numbers ([2]; time 48 h, Dilution 0.5): 1 and 2
